Results from ChEMBL document CHEMBL3885861, “Open TG-GATES”.

Species: Rattus norvegicus
Assay: Open TG-GATES - Regimen: Daily Repeat
Format: toxicity, organism-based, Sprague-Dawley
Design: regimen Daily Repeat, gender Male, age 6 weeks
Conditions: in vivo, po, 300 mg/kg, route gavage, dose level High; for APTT / Bas / Eos / Fbg / Hb / Ht / Lym / MCH / MCHC / MCV / Mono / Neu / PT / Plat / RBC / Ret / WBC: tissue Blood; for KIDNEY_L / KIDNEY_R / KIDNEY_TOTAL: tissue Kidney; for LIVER: tissue Liver; for A/G / ALP / ALT / AST / BUN / CRE / Ca / Cl / DBIL / GLC / IP / K / LDH / Na / PL / RALB / TBIL / TC / TG / TP / gamma-GTP: tissue Plasma

CC(=O)Nc1ccc2c(c1)Cc1ccccc1-2 [2-ACETYLAMINOFLUORENE]
TERMINAL_BW (72 h, time 3 day): 193.8 g
APTT (72 h, time 3 day): 20.9 s
Bas (72 h, time 3 day): 0.8%
Eos (72 h, time 3 day): 0.8%
Fbg (72 h, time 3 day): 229.4 mg/dL
Hb (72 h, time 3 day): 15.2 g/dL
Ht (72 h, time 3 day): 43.9%
Lym (72 h, time 3 day): 71.4%
MCH (72 h, time 3 day): 21.2 pg
MCHC (72 h, time 3 day): 34.6%
MCV (72 h, time 3 day): 61.2 fL
Mono (72 h, time 3 day): 3%
Neu (72 h, time 3 day): 23.2%
PT (72 h, time 3 day): 12.8 s
Plat (72 h, time 3 day): 140.3 x10_4/uL
RBC (72 h, time 3 day): 716.4 x10_4/ul
Ret (72 h, time 3 day): 2.9%
WBC (72 h, time 3 day): 127.6 x10_2/uL
KIDNEY_L (72 h, time 3 day): 0.9 g
KIDNEY_R (72 h, time 3 day): 0.9 g
KIDNEY_TOTAL (72 h, time 3 day): 1.9 g
LIVER (72 h, time 3 day): 9.4 g
A/G (72 h, time 3 day): 1.5
ALP (72 h, time 3 day): 595 IU/L
ALT (72 h, time 3 day): 24 IU/L
AST (72 h, time 3 day): 72.2 IU/L
BUN (72 h, time 3 day): 10.2 mg/dL
CRE (72 h, time 3 day): 0.4 mg/dL
Ca (72 h, time 3 day): 9.9 mg/dL
Cl (72 h, time 3 day): 105.8 meq/L
DBIL (72 h, time 3 day): 0.096 mg/dL
GLC (72 h, time 3 day): 193.6 mg/dL
IP (72 h, time 3 day): 7.4 mg/dL
K (72 h, time 3 day): 4.3 meq/L
LDH (72 h, time 3 day): 281.2 IU/L
Na (72 h, time 3 day): 142.4 meq/L
PL (72 h, time 3 day): 93.2 mg/dL
RALB (72 h, time 3 day): 2.9 g/dL
TBIL (72 h, time 3 day): 0.2 mg/dL
TC (72 h, time 3 day): 49.2 mg/dL
TG (72 h, time 3 day): 52.2 mg/dL
TP (72 h, time 3 day): 5 g/dL
gamma-GTP (72 h, time 3 day): 1.2 IU/L
TERMINAL_BW ([…], time 7 day): 219.8 g
TERMINAL_BW ([…], time 14 day): 246.4 g
TERMINAL_BW ([…], time 28 day): 274 g
APTT ([…], time 7 day): 19.8 s
Bas ([…], time 7 day): 0.6%
Eos ([…], time 7 day): 1%
Fbg ([…], time 7 day): 207 mg/dL
Hb ([…], time 7 day): 12.9 g/dL
Ht ([…], time 7 day): 36%
Lym ([…], time 7 day): 68.2%
MCH ([…], time 7 day): 21.4 pg
MCHC ([…], time 7 day): 35.9%
MCV ([…], time 7 day): 59.5 fL
Mono ([…], time 7 day): 3%
Neu ([…], time 7 day): 26.4%
PT ([…], time 7 day): 12.4 s
Plat ([…], time 7 day): 184.8 x10_4/uL
RBC ([…], time 7 day): 605.6 x10_4/ul
Ret ([…], time 7 day): 4.7%
WBC ([…], time 7 day): 186.5 x10_2/uL
APTT ([…], time 14 day): 21.6 s
Bas ([…], time 14 day): 0.6%
Eos ([…], time 14 day): 0%
Fbg ([…], time 14 day): 169.6 mg/dL
Hb ([…], time 14 day): 13.2 g/dL
Ht ([…], time 14 day): 40.3%
Lym ([…], time 14 day): 73.2%
MCH ([…], time 14 day): 22.8 pg
MCHC ([…], time 14 day): 32.7%
MCV ([…], time 14 day): 70 fL
Mono ([…], time 14 day): 2.6%
Neu ([…], time 14 day): 23%
PT ([…], time 14 day): 13.5 s
Plat ([…], time 14 day): 163 x10_4/uL
RBC ([…], time 14 day): 576.8 x10_4/ul
Ret ([…], time 14 day): 14.7%
WBC ([…], time 14 day): 142.6 x10_2/uL
APTT ([…], time 28 day): 23 s
Bas ([…], time 28 day): 0%
Eos ([…], time 28 day): 0.4%
Fbg ([…], time 28 day): 142 mg/dL
Hb ([…], time 28 day): 13.2 g/dL
Ht ([…], time 28 day): 39.8%
Lym ([…], time 28 day): 67.6%
MCH ([…], time 28 day): 20.9 pg
MCHC ([…], time 28 day): 33.1%
MCV ([…], time 28 day): 63.1 fL
Mono ([…], time 28 day): 2.6%
Neu ([…], time 28 day): 27.8%
PT ([…], time 28 day): 13.3 s
Plat ([…], time 28 day): 134.9 x10_4/uL
RBC ([…], time 28 day): 632.8 x10_4/ul
Ret ([…], time 28 day): 10.2%
WBC ([…], time 28 day): 131.2 x10_2/uL
KIDNEY_L ([…], time 7 day): 1 g
KIDNEY_R ([…], time 7 day): 1 g
KIDNEY_TOTAL ([…], time 7 day): 2 g
KIDNEY_L ([…], time 14 day): 1.1 g
KIDNEY_R ([…], time 14 day): 1 g
KIDNEY_TOTAL ([…], time 14 day): 2.1 g
KIDNEY_L ([…], time 28 day): 1.2 g
KIDNEY_R ([…], time 28 day): 1.2 g
KIDNEY_TOTAL ([…], time 28 day): 2.3 g
LIVER ([…], time 7 day): 11.5 g
LIVER ([…], time 14 day): 13.3 g
LIVER ([…], time 28 day): 13.2 g
A/G ([…], time 7 day): 1.5
ALP ([…], time 7 day): 616.8 IU/L
ALT ([…], time 7 day): 32 IU/L
AST ([…], time 7 day): 75.8 IU/L
BUN ([…], time 7 day): 13 mg/dL
CRE ([…], time 7 day): 0.5 mg/dL
Ca ([…], time 7 day): 10.4 mg/dL
Cl ([…], time 7 day): 102.8 meq/L
DBIL ([…], time 7 day): 0.1 mg/dL
GLC ([…], time 7 day): 165.8 mg/dL
IP ([…], time 7 day): 6.5 mg/dL
K ([…], time 7 day): 4 meq/L
LDH ([…], time 7 day): 224.2 IU/L
Na ([…], time 7 day): 138.4 meq/L
PL ([…], time 7 day): 113.2 mg/dL
RALB ([…], time 7 day): 2.8 g/dL
TBIL ([…], time 7 day): 0.2 mg/dL
TC ([…], time 7 day): 51.6 mg/dL
TG ([…], time 7 day): 115 mg/dL
TP ([…], time 7 day): 4.7 g/dL
gamma-GTP ([…], time 7 day): 1 IU/L
A/G ([…], time 14 day): 1.5
ALP ([…], time 14 day): 611.4 IU/L
ALT ([…], time 14 day): 39.8 IU/L
AST ([…], time 14 day): 70.4 IU/L
BUN ([…], time 14 day): 13.2 mg/dL
CRE ([…], time 14 day): 0.5 mg/dL
Ca ([…], time 14 day): 9.9 mg/dL
Cl ([…], time 14 day): 104.8 meq/L
DBIL ([…], time 14 day): 0.2 mg/dL
GLC ([…], time 14 day): 160.6 mg/dL
IP ([…], time 14 day): 6.8 mg/dL
K ([…], time 14 day): 4.3 meq/L
LDH ([…], time 14 day): 190 IU/L
Na ([…], time 14 day): 141 meq/L
PL ([…], time 14 day): 135.4 mg/dL
RALB ([…], time 14 day): 2.9 g/dL
TBIL ([…], time 14 day): 0.3 mg/dL
TC ([…], time 14 day): 54.8 mg/dL
TG ([…], time 14 day): 154.4 mg/dL
TP ([…], time 14 day): 4.8 g/dL
gamma-GTP ([…], time 14 day): 1.2 IU/L
A/G ([…], time 28 day): 1.3
ALP ([…], time 28 day): 649.6 IU/L
ALT ([…], time 28 day): 42.4 IU/L
AST ([…], time 28 day): 72.6 IU/L
BUN ([…], time 28 day): 14 mg/dL
CRE ([…], time 28 day): 0.5 mg/dL
Ca ([…], time 28 day): 9.8 mg/dL
Cl ([…], time 28 day): 104.8 meq/L
DBIL ([…], time 28 day): 0.3 mg/dL
GLC ([…], time 28 day): 162.2 mg/dL
IP ([…], time 28 day): 6.6 mg/dL
K ([…], time 28 day): 3.7 meq/L
LDH ([…], time 28 day): 169.8 IU/L
Na ([…], time 28 day): 140.4 meq/L
PL ([…], time 28 day): 145.6 mg/dL
RALB ([…], time 28 day): 2.7 g/dL
TBIL ([…], time 28 day): 0.4 mg/dL
TC ([…], time 28 day): 59.4 mg/dL
TG ([…], time 28 day): 134.8 mg/dL
TP ([…], time 28 day): 4.8 g/dL
gamma-GTP ([…], time 28 day): 4.8 IU/L
